ChEMBL document CHEMBL5120812, “Cytotoxic Nitrobenzoyl Sesquiterpenoids from an Antarctica Sponge-Derived Aspergillus insulicola” (J Nat Prod, 2022)
Calls of active or inactive are those of the source. No cut-off for these calls is given here.

How the values were obtained:
PANC-1 [1] = experiment: Cytotoxicity against human PANC-1 cells assessed as inhibition of cell growth incubated for 72 hrs by SRB assay; format: functional, cell-based; conditions: PANC-1, 72 h
PANC-1 [2] = experiment: Induction of apoptosis in human PANC-1 cells assessed as viable cells at 5 uM incubated for 24 hrs by annexinV-FITC and PI staining based flow cytometry analysis (reference value: 89.5 %); format: functional; conditions: read-out: Activity
PANC-1 [3] = experiment: Induction of apoptosis in human PANC-1 cells assessed as viable cells at 2.50 uM incubated for 24 hrs by annexinV-FITC and PI staining based flow cytometry analysis (reference value: 89.5 %); format: functional; conditions: read-out: Activity
PANC-1 [4] = experiment: Induction of apoptosis in human PANC-1 cells assessed as viable cells at 1.25 uM incubated for 24 hrs by annexinV-FITC and PI staining based flow cytometry analysis (reference value: 89.5 %); format: functional; conditions: read-out: Activity
PANC-1 [5] = experiment: Antiinvasive activity in human PANC-1 cells assessed as decrease in cell invasion at 0.94 to 3.75 uM incubated for 24 hrs by crystal violet staining based transwell assay; format: functional; conditions: dose 0.94-3.75 µM
ASPC1 [6] = experiment: Upregulation of PARP expression in human ASPC1 cells incubated for 24 hrs in presence of gemcitabine by Western blot analysis; format: functional, cell-based
ASPC1 [7] = experiment: Cytotoxicity against human ASPC1 cells assessed as inhibition of cell growth incubated for 72 hrs by SRB assay; format: functional, cell-based; conditions: ASPC1, 72 h
MDA-MB-231 = experiment: Cytotoxicity against human MDA-MB-231 cells assessed as inhibition of cell growth incubated for 72 hrs by SRB assay; format: functional, cell-based; conditions: MDA-MB-231, 72 h
BXPC-3 = experiment: Cytotoxicity against human BXPC-3 cells assessed as inhibition of cell growth incubated for 72 hrs by SRB assay; format: functional, cell-based; conditions: BXPC-3, 72 h
ASPC1 [8] = experiment: Cytotoxicity against human ASPC1 cells assessed as inhibition of cell proliferation at 0.94 to 30 uM by SRB assay; format: functional, cell-based; conditions: dose 0.94-30 µM, time 24-72 hrs, TDE = time-dependent effect
PANC-1 [9] = experiment: Cytotoxicity against human PANC-1 cells assessed as inhibition of cell proliferation at 0.94 to 30 uM by SRB assay; format: functional, cell-based; conditions: dose 0.94-30 µM, time 24-72 hrs, TDE = time-dependent effect
[10] = target: Epidermal growth factor receptor (Homo sapiens) (UniProt P00533); experiment: Inhibition of EGFR downstream signalling in human ASPC1 cells assessed as reduction of STAT3 phosphorylation upto 5 uM incubated for 24 hrs by Western blot analysis; format: cell-based
[11] = target: Epidermal growth factor receptor (Homo sapiens) (UniProt P00533); experiment: Inhibition of EGFR downstream signalling in human ASPC1 cells assessed as reduction of Akt phosphorylation upto 5 uM incubated for 24 hrs by Western blot analysis; format: cell-based
[12] = target: Epidermal growth factor receptor (Homo sapiens) (UniProt P00533); experiment: Inhibition of EGFR downstream signalling in human PANC-1 cells assessed as reduction of STAT3 phosphorylation upto 5 uM incubated for 24 hrs by Western blot analysis; format: cell-based
[13] = target: Epidermal growth factor receptor (Homo sapiens) (UniProt P00533); experiment: Inhibition of EGFR downstream signalling in human PANC-1 cells assessed as reduction of Akt phosphorylation upto 5 uM incubated for 24 hrs by Western blot analysis; format: cell-based
ASPC1 [14] = experiment: Induction of apoptosis in human ASPC1 cells assessed as viable cells at 1.25 uM incubated for 24 hrs by annexinV-FITC and PI staining based flow cytometry analysis (reference value: 96.0 %); format: functional; conditions: read-out: Activity
ASPC1 [15] = experiment: Induction of apoptosis in human ASPC1 cells assessed as viable cells at 2.50 uM incubated for 24 hrs by annexinV-FITC and PI staining based flow cytometry analysis (reference value: 96.0 %); format: functional; conditions: read-out: Activity
ASPC1 [16] = experiment: Induction of apoptosis in human ASPC1 cells assessed as viable cells at 5 uM incubated for 24 hrs by annexinV-FITC and PI staining based flow cytometry analysis (reference value: 96.0 %); format: functional; conditions: read-out: Activity
ASPC1 [17] = experiment: Induction of apoptosis in human ASPC1 cells assessed as early apoptotic cells at 1.25 uM incubated for 24 hrs by annexinV-FITC and PI staining based flow cytometry analysis (reference value: 1.56 %); format: functional
ASPC1 [18] = experiment: Induction of apoptosis in human ASPC1 cells assessed as early apoptotic cells at 2.50 uM incubated for 24 hrs by annexinV-FITC and PI staining based flow cytometry analysis (reference value: 1.56 %); format: functional; conditions: dose 2.5 µM
ASPC1 [19] = experiment: Induction of apoptosis in human ASPC1 cells assessed as early apoptotic cells at 5 uM incubated for 24 hrs by annexinV-FITC and PI staining based flow cytometry analysis (reference value: 1.56 %); format: functional
ASPC1 [20] = experiment: Induction of apoptosis in human ASPC1 cells assessed as late apoptotic cells at 1.25 uM incubated for 24 hrs by annexinV-FITC and PI staining based flow cytometry analysis (reference value: 2.18 %); format: functional
ASPC1 [21] = experiment: Induction of apoptosis in human ASPC1 cells assessed as late apoptotic cells at 2.50 uM incubated for 24 hrs by annexinV-FITC and PI staining based flow cytometry analysis (reference value: 2.18 %); format: functional; conditions: dose 2.5 µM
ASPC1 [22] = experiment: Induction of apoptosis in human ASPC1 cells assessed as late apoptotic cells at 5 uM incubated for 24 hrs by annexinV-FITC and PI staining based flow cytometry analysis (reference value: 2.18 %); format: functional
ASPC1 [23] = experiment: Induction of apoptosis in human ASPC1 cells assessed as necrotic cells at 1.25 uM incubated for 24 hrs by annexinV-FITC and PI staining based flow cytometry analysis (reference value: 0.27 %); format: functional
ASPC1 [24] = experiment: Induction of apoptosis in human ASPC1 cells assessed as necrotic cells at 2.50 uM incubated for 24 hrs by annexinV-FITC and PI staining based flow cytometry analysis (reference value: 0.27 %); format: functional; conditions: dose 2.5 µM
ASPC1 [25] = experiment: Induction of apoptosis in human ASPC1 cells assessed as necrotic cells at 5 uM incubated for 24 hrs by annexinV-FITC and PI staining based flow cytometry analysis (reference value: 0.27 %); format: functional
PANC-1 [26] = experiment: Induction of apoptosis in human PANC-1 cells assessed as early apototic cells at 1.25 uM incubated for 24 hrs by annexinV-FITC and PI staining based flow cytometry analysis (reference value: 4.66 %); format: functional
PANC-1 [27] = experiment: Induction of apoptosis in human PANC-1 cells assessed as early apototic cells at 2.50 uM incubated for 24 hrs by annexinV-FITC and PI staining based flow cytometry analysis (reference value: 4.66 %); format: functional; conditions: dose 2.5 µM
PANC-1 [28] = experiment: Induction of apoptosis in human PANC-1 cells assessed as early apototic cells at 5 uM incubated for 24 hrs by annexinV-FITC and PI staining based flow cytometry analysis (reference value: 4.66 %); format: functional
PANC-1 [29] = experiment: Induction of apoptosis in human PANC-1 cells assessed as late apototic cells at 1.25 uM incubated for 24 hrs by annexinV-FITC and PI staining based flow cytometry analysis (reference value: 5.71 %); format: functional

Epidermal growth factor receptor (Homo sapiens), sequence (P00533 whole entry): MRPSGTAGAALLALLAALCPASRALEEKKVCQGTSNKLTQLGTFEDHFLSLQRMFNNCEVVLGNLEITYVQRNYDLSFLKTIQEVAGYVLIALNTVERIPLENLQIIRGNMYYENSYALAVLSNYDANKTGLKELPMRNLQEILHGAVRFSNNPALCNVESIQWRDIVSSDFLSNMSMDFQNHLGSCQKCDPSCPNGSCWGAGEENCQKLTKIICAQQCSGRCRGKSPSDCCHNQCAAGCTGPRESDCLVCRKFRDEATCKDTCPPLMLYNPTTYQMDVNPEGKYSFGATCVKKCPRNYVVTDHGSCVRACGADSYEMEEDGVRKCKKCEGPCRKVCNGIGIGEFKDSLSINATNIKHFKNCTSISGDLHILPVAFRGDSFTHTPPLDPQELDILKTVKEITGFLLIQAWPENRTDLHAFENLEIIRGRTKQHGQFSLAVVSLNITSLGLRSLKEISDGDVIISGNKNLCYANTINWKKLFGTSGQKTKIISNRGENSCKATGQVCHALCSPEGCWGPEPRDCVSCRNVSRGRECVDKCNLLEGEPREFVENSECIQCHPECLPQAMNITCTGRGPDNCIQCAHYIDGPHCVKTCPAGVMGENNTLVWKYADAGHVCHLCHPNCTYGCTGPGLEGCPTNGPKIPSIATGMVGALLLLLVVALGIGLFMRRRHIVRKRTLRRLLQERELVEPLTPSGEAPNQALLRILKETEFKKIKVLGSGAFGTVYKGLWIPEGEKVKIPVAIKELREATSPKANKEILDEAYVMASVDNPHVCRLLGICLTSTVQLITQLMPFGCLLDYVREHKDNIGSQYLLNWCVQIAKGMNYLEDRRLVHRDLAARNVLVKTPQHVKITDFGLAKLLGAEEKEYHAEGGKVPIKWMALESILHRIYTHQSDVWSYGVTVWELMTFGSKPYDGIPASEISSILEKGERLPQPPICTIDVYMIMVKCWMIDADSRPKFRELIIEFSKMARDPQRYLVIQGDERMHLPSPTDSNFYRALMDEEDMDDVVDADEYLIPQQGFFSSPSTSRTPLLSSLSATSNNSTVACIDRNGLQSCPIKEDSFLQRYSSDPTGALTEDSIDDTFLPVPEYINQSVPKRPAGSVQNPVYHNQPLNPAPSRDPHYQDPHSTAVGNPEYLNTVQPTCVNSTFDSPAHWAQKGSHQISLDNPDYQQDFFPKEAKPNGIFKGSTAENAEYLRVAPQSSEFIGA

`COC(=O)CCCCCCC/C=C/C(=O)OC[C@@]1(C)CCC[C@@]2(C)[C@H]1[C@H](OC(=O)c1ccc([N+](=O)[O-])cc1)C=C1C(=O)OC[C@@]12O` showed an IC50 (PANC-1 [1]) of 4.2 µM, a viability at 5 µM (PANC-1 [2]) of 69.6% and a viability at 2.5 µM (PANC-1 [3]) of 80.6%. The viability at 1.25 µM (PANC-1 [4]) was 90.7%, the Activity (PANC-1 [5]) was “Active” and the Activity (ASPC1 [6]) was “Active”. The IC50 (ASPC1 [7]) was 2.3 µM, the IC50 (MDA-MB-231) was 22.9 µM and the IC50 (BXPC-3) was 4.88 µM. The Activity (ASPC1 [8]) was “Tde”, the Activity (PANC-1 [9]) was “Tde” and the inhibition [10] was “Active”. For the same compound, the inhibition [11] was “Active”, the inhibition [12] was “Active” and the inhibition [13] was “Active”. For the same compound, the viability at 1.25 µM (ASPC1 [14]) was 90.1%, the viability at 2.5 µM (ASPC1 [15]) was 87.7% and the viability at 5 µM (ASPC1 [16]) was 85.1%. For the same compound, the Activity (ASPC1 [17]) was 5.77%, the Activity (ASPC1 [18]) was 7.03% and the Activity (ASPC1 [19]) was 2.98%. The Activity (ASPC1 [20]) was 3.96%, the Activity (ASPC1 [21]) was 4.92% and the Activity (ASPC1 [22]) was 10.1%. The Activity (ASPC1 [23]) was 0.2%, the Activity (ASPC1 [24]) was 0.38% and the Activity (ASPC1 [25]) was 1.79%. For the same compound, the Activity (PANC-1 [26]) was 5.99%, the Activity (PANC-1 [27]) was 5.58% and the Activity (PANC-1 [28]) was 7.12%. The Activity (PANC-1 [29]) was 3.09%.
